# Measurements as given in US8846570B2, “Herbicidal compositions comprising 4-amino-3-chloro-5-fluoro-6-(4-chloro-2-fluoro-3-methoxyphenyl)pyridine-2-carboxylic acid or a derivative thereof and microtubule inhibiting herbicides” (Dow AgroSciences LLC, priority 2012, dated 2014).
# Tests used:
# Assay in all cases: Pre-emergence soil-applied, greenhouse: visual weed control
# Format in all cases: in vivo
# [1] = test system: Brachiaria platyphylla (Groseb.) Nash or Urochloa platyphylla (Nash) R.D. Webster (BRAPP)
# Source text: (§1) Seeds or nutlets of the desired test plant species were planted in a soil matrix prepared by mixing a loam soil (e.g., 32 percent silt, 23 percent clay, and 45 percent sand, with a pH of about 6.5 and an organic matter content of about 1.9 percent) and calcareous grit in an 80 to 20 ratio. The soil matrix was contained in plastic pots with a volume of 1 quart and a surface area of 83.6 square centimeters (cm^2).
# (§2) Treatments consisted of the benzyl ester of 4-amino-3-chloro-5-fluoro-6-(4-chloro-2-fluoro-3-methoxy-phenyl)pyridine-2-carboxylic acid (compound A) formulated as an SC (suspension concentrate) and various herbicidal components alone and in combination. Forms of compound A were applied on an acid equivalent basis.
# (§3) Treatment requirements were calculated based upon the rates being tested, the concentration of active ingredient or acid equivalent in the formulation, and a 12 mL application volume at a rate of 187 L/ha.
# (§4) For treatments comprised of formulated compounds, measured amounts of compounds were placed individually in 25 mL glass vials and diluted in a volume of 1.25% (v/v) Agri-Dex® crop oil concentrate (COC) to obtain 12× stock solutions. […] Application solutions were prepared by adding an appropriate amount of each stock solution (e.g., 1 mL) and diluted to the appropriate final concentrations with the addition of 10 mL of an aqueous mixture of 1.25% (v/v) COC so that the final spray solutions contained 1.25% (v/v) COC.
# (§5) For treatments comprised of formulated and technical compounds, weighed amounts of the technical materials were placed individually in 25 mL glass vials and dissolved in a volume of 97:3 (v/v) acetone/DMSO to obtain 12× stock solutions, and measured amounts of the formulated compounds were placed individually in 25 mL glass vials and diluted in a volume of 1.5% (v/v) COC or water to obtain 12× stock solutions. […] Application solutions were prepared by adding an appropriate amount of each stock solution (e.g., 1 mL) and diluted to the appropriate final concentrations with the addition of an appropriate amount of an aqueous mixture of 1.5% (v/v) COC so that the final spray solutions contained 1.25% (v/v) COC. As required, additional water and/or 97:3 (v/v) acetone/DMSO was added to individual application solutions so that the final acetone and DMSO concentrations of the application solutions being compared were 8.1% and 0.25%, respectively.
# (§6) All stock solutions and applications solutions were visually inspected for compound compatibility prior to application. Spray solutions were applied to the soil with an overhead Mandel track sprayer equipped with a 8002E nozzles calibrated to deliver 187 L/ha over an application area of 0.503 m^2 at a spray height of 18 inches (46 cm) above average pot height. Control pots were sprayed in the same manner with the solvent blank.
# (§7) The treated and control pots were placed in a greenhouse and top watered as needed. When required to ensure good germination and healthy plants, a fungicide treatment and/or other chemical or physical treatment was applied. The pots were maintained in a greenhouse with an approximate 14 hr photoperiod which was maintained at about 29° C. during the day and 26° C. during the night. Nutrients (Peters® Excel 15-5-15 5-Ca 2-Mg) were applied in the irrigation solution as needed and water was added on a regular basis. Supplemental lighting was provided with overhead metal halide 1000-Watt lamps as necessary. After approximately 4 weeks, the condition of the test plants as compared with that of the untreated plants was determined visually and scored on a scale of 0 to 100 percent where 0 corresponds to no injury or growth inhibition and 100 corresponds to complete kill.
# (§8) Colby's equation was used to determine the herbicidal effects expected from the mixtures (Colby, S. R. 1967. Calculation of the synergistic and antagonistic response of herbicide combinations. Weeds 15:20-22.). […]
# [2] = test system: Echinochloa crus-galli (L.) P. Beauv. (ECHCG)
# Source text: as §1, §2, §3, §4, §5, §6, §7, §8
# [3] = test system: Sesbania exaltata (Raf.) Cory/Rydb. Ex Hill (SEBEX); details: Compound A Benzyl Ester 16 g ae/ha alone
# Source text: as §1, §2, §3, §4, §5, §6, §7, §8
# [4] = test system: Setaria faberi Herrm. (SETFA)
# Source text: as §1, §2, §3, §4, §5, §6, §7, §8
# [5] = Compound A Benzyl Ester 16 g ae/ha alone
# [6] = Compound A Benzyl Ester 32 g ae/ha alone
smiles,measurement,setting,value
"COc1c(Cl)ccc(-c2nc(C(=O)OCc3ccccc3)c(Cl)c(N)c2F)c1F [Compound A Benzyl Ester, benzyl ester of 4-amino-3-chloro-5-fluoro-6-(4-chloro-2-fluoro-3-methoxy-phenyl)pyridine-2-carboxylic acid]",Visual Weed Control (%) - 33 DAA BRAPP Obs,[1]; [5],23%
same,Visual Weed Control (%) - 33 DAA BRAPP Obs,[1]; [6],50%
same,Visual Weed Control (%) - 33 DAA ECHCG Obs,[2]; [5],20%
same,Visual Weed Control (%) - 33 DAA ECHCG Obs,[2]; [6],33%
same,Visual Weed Control (%) - 33 DAA SEBEX Obs,[3],40%
same,Visual Weed Control (%) - 33 DAA SETFA Obs,[4]; [5],13%
same,Visual Weed Control (%) - 33 DAA SETFA Obs,[4]; [6],13%
